In brackets after ≈: the same amount, converted by molar mass. Each block holds one compound with its values, some of them ahead of it.
Legend:
[1] = cited from earlier work
Plasma protein binding = assay type: in vitro ADME, mouse; conditions: mouse plasma; read-out: percent unbound
Description: Plasma protein binding was determined by rapid equilibrium dialysis. Plasma was freshly prepared from blood samples drawn in to EDTA (anticoagulant) containing tubes. Plasma was prepared using a table-top centrifuge and spun per instruction of the tube manufacturer and specifications (Beckton, Dickinson and Company, Franklin Lakes, NJ) and placed on ice prior to use.
Pooled plasma samples were centrifuged at 2000 rpm (approximately 1400g) for 15 min at 4 °C to remove debris. Approximately 90% of the clear supernatant fraction was transferred to a separate tube. Samples (500 μL) were then spiked with a 100× stock solution 100 μM, 0.5 mM, and 10 mM ETX1317 in DMSO respectively for 1, 5, and 100 μM final concentrations, transferred to the top of the filter chambers, and allowed to equilibrate for 15 min prior to centrifugation. The filtrate tubes were centrifuged at 14000g for 15 min at 4 °C. Next, 50 μL of the filtrate was precipitated with 300 μL of acetonitrile containing 250 ng/mL of carbutamide as the internal standard and the samples were analyzed by LC/MS/MS analysis.

[2] = system: Enterobacteriaceae isolates; test: Hollow-fiber and chemostat models, strains combined; assay type: cell-based, E. coli, K. pneumoniae; conditions: infused alone, both models
Description: The PK/PD driver of ETX1317 was assessed in the presence of CPD in both hollow-fiber[28]−[31] and chemostat[32]in vitro infection model systems. In all cases, CPD was administered q12h via a 2 h infusion and eliminated with a 2 h half-life, with the concentration of drug exceeding the MIC (the MIC of CPD in the presence of ETX1317 at a 1:2 ratio) for 50% of the dosing interval for each strain. Representative Emax plots are shown graphically for Escherichia coli ARC2687 in the hollow-fiber model and Klebsiella pneumoniae ARC4420 in the chemostat system (Figure 2). […] This could partially be attributed to the distribution of the concentration ranges utilized for the hollow-fiber infection model (HFIM) where most of the data scatter occurred in the efficacious dose range for lower MIC strains. It is important to note that initial evaluation of K. pneumoniae ARC4420 and ARC5118 was completed in the HFIM but rapid degradation of CPD, presumably through accumulation of β-lactamases in the extra-capillary space of the cartridge precluded a reliable assessment of the PK/PD driver with these strains in this model.[32] […] In both the HFIM and chemostat models the optimum critical threshold of ETX1317 was established through iterative Emax fitting of a range of ETX1317 concentrations from 0.5× to 2× the CPD:ETX1317 MIC value. In the HFIM, %Time > ETX1317 CT of 2× MIC provided the highest correlation to observed activity which appeared to be independent to the apparent intrinsic activity of ETX1317 (as reflected by ETX1317 MICBLI of K. pneumoniae ARC4486 vs ARC4488). […] In both models CPD infused alone mimicked vehicle control as expected with similar growth of +2 to 4 log10 CFU/mL.
PK/PD-derived exposure targets for BLIs have utilized various approaches for clinical dose setting. The use of a singular critical threshold value independent of MIC has been used for recent BL/BLI combinations such as ceftazidime/avibactam[34] aztreonam/avibactam,[35] but this has been problematic to correlate activity across a broad range of MICs. More recent work with ceftolozane/tazobactam[36] and other BLI combinations[37],[38] considers a critical threshold value that varies proportionally to the MIC value. […] Convergence of the data to a threshold value related to MIC simplifies dose setting and, in this case, appears to be consistent across a broad range of susceptibility (0.125–1 μg/mL).
Dose range and dose fractionation were performed in hollow-fiber infection model (HFIM) and chemostat (one-compartment) in vitro infection model. […] CPD concentrations were targeted to achieve exposure of ∼50%Time > MIC determined in the presence of ETX1317. […] Bacterial burden (CFU/mL) was serially assessed by sampling (500 μL) from the extra-capillary space of the HFIM cartridge at predetermined time points. […]

[3] = system: E. coli strain (ATCC 25922); test: MIC; assay type: cell-based; conditions: Escherichia coli, ATCC25922; susceptible strain
From the text: All in vivo efficacy studies were supported with PK of ETX1317 and CPD following oral administration of ETX0282 and CPDP. For the purposes of understanding the exposure-PD response relationship, total systemic concentrations of ETX1317 and cefpodoxime were normalized to unbound drug levels after accounting for protein binding with percent unbound estimates of 93% and 66%, respectively, in mouse plasma (Table S2). An in vivo dose range study with CPDP administered alone against a susceptible E. coli strain (ATCC 25922, CPD MIC = 0.5 μg/mL) was completed initially in a murine neutropenic thigh model to confirm its PK/PD target. In this study a 50 mg/kg oral dose of CPDP administered q6h was consistent with achieving 1–log kill over 24 h. […] Oral exposure was generally dose proportional to 50 mg/kg; however, it became less than dose proportional at ≥200 mg/kg.
(§1) The MIC of each isolate was determined using the broth microdilution method following CLSI guidelines of document M07-A7 (CLSI M07-A7).

E. coli ARC2687 [4] = test: MIC, broth microdilution (CLSI); assay type: cell-based
Description: (§2) MICs were determined utilizing a 1:2 ratio of cefpodoxime:ETX1317. […] The isolates utilized in the present study (Table 1) were broadly insensitive to CPD, presumably due to the presence of ESBLs and carbapenemases expressed in these strains. The addition of ETX1317 restored CPD activity to ≤1 μg/mL across all the tested isolates.
as §1

E. coli ARC4419 [5] = test: MIC, broth microdilution (CLSI); assay type: cell-based; conditions: Escherichia coli, combination at 1:2 ratio cefpodoxime:ETX1317, MIC of CPD
Description: as §2, §1

E. coli NMC101 [6] = test: MIC, broth microdilution (CLSI); assay type: cell-based; conditions: Escherichia coli, combination at 1:2 ratio cefpodoxime:ETX1317, MIC of CPD
Description: as §2, §1

K. pneumoniae ARC4486 = test: MIC, broth microdilution (CLSI); assay type: cell-based; conditions: Klebsiella pneumoniae, combination at 1:2 ratio cefpodoxime:ETX1317, MIC of CPD
Description: as §2, §1

K. pneumoniae ARC4420 = test: MIC, broth microdilution (CLSI); assay type: cell-based; conditions: Klebsiella pneumoniae, combination at 1:2 ratio cefpodoxime:ETX1317, MIC of CPD
Description: as §2, §1

K. pneumoniae ARC5118 [7] = test: MIC, broth microdilution (CLSI); assay type: cell-based
Description: as §2, §1

K. pneumoniae ARC4488 = test: MIC, broth microdilution (CLSI); assay type: cell-based
Description: as §2, §1

E. coli ARC2687 [8] = test: Murine neutropenic thigh infection model; assay type: in vivo, mouse
Description: (§3) In vivo neutropenic infection models in the mouse were conducted as previously described.[48],[49] All procedures were performed to Entasis approved IACUC policies and guidelines as well as OLAW standards. Briefly, Female CD-1 mice (20–22 g, Charles River Laboratories) were acclimated for 5 days prior to start of study. Animals were housed 3 per cage with free access to food and water. Mice were rendered neutropenic via two doses of cyclophosphamide on days −4 and −1 with 150 mg/kg and 100 mg/kg delivered intraperitoneally in a dose volume of 10 mL/kg, respectively.[48]
(§4) Enterobacteriaceae isolates ARC2687, ARC4488, ARC5118, NMC101, and ARC4419 were prepared for infection from an overnight plate culture. A portion of the plate was resuspended in sterile saline and adjusted to an OD of 0.1 at 625 nm. The adjusted bacterial suspension was further diluted to target an infecting inoculum of approximately 5.0 × 10^6–1.0 × 10^7 CFU/mouse. The actual inoculum size varied between 5.5 × 10^6–1.6 × 10^6 CFU/thigh and administered via intramuscular injection of (100 μL). Plate counts of the inoculum were performed to confirm inoculum concentration and treatment was initiated 2 h after bacterial challenge.
(§5) ETX0282 and CPDP were formulated in 0.5% HPMC/0.1% Tween 80 suspension. meropenem (utilized as a positive control) was solubilized in water for injection. All studies utilized a meropenem dosed at 600 mg/kg q6h subcutaneously as positive control against meropenem sensitive isolates (MIC ≤ 2 μg/mL) and as a negative control against meropenem resistant isolates. For dose arms utilizing a combination of ETX0282 and CPDP, both agents were reconstituted in the same vehicle. All dose concentrations were adjusted to deliver targeted mg/kg doses within a dose volume of 10 mL/kg. Formulation potency was verified by LC/MS/MS.
(§6) ETX0282 and CPDP were administered via q6h dose intervals in order to achieve targeted unbound exposures. At 24 h post initiation of therapy, animals were euthanized, tissue samples aseptically collected and homogenized. Bacterial colony enumeration of tissue homogenate was performed by serial dilution on TSA plates which were incubated overnight at 35 °C prior to colony (CFU) counting.

K. pneumoniae ARC5118 [9] = test: Murine neutropenic thigh infection model; assay type: in vivo, mouse
Description: as §3, §4, §5, §6

E. coli ARC4419 [10] = test: Murine neutropenic thigh infection model; assay type: in vivo, mouse; conditions: 600 mg/kg s.c./q6h
Description: (§7) To further understand whether this in vitro activity translated to in vivo efficacy, an additional neutropenic thigh study was conducted in mice with increasing doses of ETX0282 alone vs E. coli NMC101 (ETX1317 MICBLI = 1 μg/mL) and ARC4419 (ETX1317 MICBLI = 0.25 μg/mL). […] Despite the significant exposure of ETX1317, a 200 mg/kg q6h dose of ETX0282 alone was ineffective for both strains (Table 6).
as §3, §4, §5, §6

E. coli NMC101 [11] = test: Murine neutropenic thigh infection model; assay type: in vivo, mouse; conditions: 600 mg/kg s.c./q6h
Description: as §7, §3, §4, §5, §6

[12] = q6h, 24 h, cidal = ≥1 log10 CFU/g reduction

fraction unbound at 15 min (Plasma protein binding): 0.66
MIC [3]: 0.5 µg/mL (≈ 1.17 µM)
MIC (E. coli ARC2687 [4]; Escherichia coli, ARC2687, combination at 1:2 ratio cefpodoxime:ETX1317, MIC of CPD): > 64 µg/mL
MIC (E. coli ARC4419 [5]): 64 µg/mL
MIC (E. coli NMC101 [6]): > 64 µg/mL
MIC (K. pneumoniae ARC4486): > 64 µg/mL
MIC (K. pneumoniae ARC4420): > 64 µg/mL
MIC (K. pneumoniae ARC5118 [7]; Klebsiella pneumoniae, ARC5118, combination at 1:2 ratio cefpodoxime:ETX1317, MIC of CPD): > 64 µg/mL
MIC (K. pneumoniae ARC4488; Klebsiella pneumoniae, ARC4488, combination at 1:2 ratio cefpodoxime:ETX1317, MIC of CPD): > 64 µg/mL
Compound: COCC1=C(C(=O)O)N2C(=O)[C@@H](NC(=O)/C(=N\OC)c3csc(N)n3)[C@H]2SC1 [cefpodoxime]
% of dosing interval with mean unbound concentrations exceeding at least 0.5 μg/mL ([1]; 400 mg q12h (800 mg/day)): greater than 50%
half-life in humans ([1]; humans): 2 h
F% ([1]; oral proxetil ester prodrug, top dose 400 mg q12h): ≈ 50%
growth [2]: +2 to 4 log10 CFU/mL

Compound: C[C@@H](O)[C@H]1C(=O)N2C(C(=O)O)=C(S[C@@H]3CN[C@H](C(=O)N(C)C)C3)[C@H](C)[C@H]12 [meropenem]
log10 CFU/g thigh change 24 h post therapy initiation (E. coli ARC2687 [8]; 600 mg/kg s.c./q6h): –1.46 log10 CFU/g
in vivo efficacy in words (E. coli ARC2687 [8]; [12]): cidal activity
log10 CFU/g thigh change 24 h post therapy initiation (K. pneumoniae ARC5118 [9]; 600 mg/kg s.c./q6h): +2.04 log10 CFU/g
in vivo efficacy in words (K. pneumoniae ARC5118 [9]; [12]): not against K. pneumoniae ARC5118
log10 CFU/g thigh change 24 h post therapy initiation (E. coli ARC4419 [10]): –2.19 log10 CFU/g
log10 CFU/g thigh change 24 h post therapy initiation (E. coli NMC101 [11]): –1.36 log10 CFU/g
susceptibility to meropenem (E. coli ARC2687 [4]; ESBL producer): maintain susceptibility to meropenem
susceptibility to meropenem (K. pneumoniae ARC5118 [7]; KPC-producing isolate): resistant to meropenem
susceptibility to meropenem (K. pneumoniae ARC4488; ESBL producer): maintain susceptibility to meropenem

Reference: PMC7297445, “Pharmacokinetic/Pharmacodynamic Determination and Preclinical Pharmacokinetics of the β-Lactamase Inhibitor ETX1317 and Its Orally Available Prodrug ETX0282” (ACS Infectious Diseases, 2020)
